pIC50: −log10 of the molar value.
Tests used:
[1] = tested on: MDA-MB-231 cells; experiment: Viability/cytotoxicity assay (growth inhibition); type: cell-based; conditions: Homo sapiens, read-out: IC50, inhibition of cell proliferation
Method: Human cell lines MDA-MB-231 cells were obtained from ATCC (Rockville, Md.). These cells were authenticated by Laragen, Inc. (Culver City, Calif.), by short tandem repeat (STR) profiling, monitoring cell morphology and biological behavior, and tested to exclude mycoplasma contamination prior to use.
A viability/cytotoxicity assay was performed by culturing cells in 96-well plates. The following day the cells were treated with ½ serial dilutions of each compound or the solvent (DMSO) alone as a control. The amount of solvent was the same in all the conditions and each condition was tested in duplicate or triplicate. After 5 days incubation, the effect of the compounds on cell proliferation were determined by either MTT (3-(4,5-dimethylthiazol-2-yl)-2,5-diphenyltetrazolium bromide, Sigma-Aldrich, St. Louis, Mo.) or bioluminescence assay (Cell Titer Glo, Promega, Madison, Wis.). After incubation of the cells with MTT (1 mg/ml), the developed color was dissolved in DMSO and read by a plate reader. The bioluminescence assays were performed according to the manufacturer's recommendation. Growth inhibition rates were determined by comparing the read out for each compound dilution versus the control and from the growth inhibition curves from which the IC50 values were calculated. Each assay was performed at least twice.

[2] = tested on: MDA-MB-231 tumors; experiment: MDA-MB-231 TNBC xenograft tumor model in nude mice; type: in vivo; conditions: 20 mg/kg intraperitoneally, up to 4 weeks; for tumor growth (size and weight): daily 5 days then 2 days rest
Method: Values represent mean±SD, n=6-8 mice/group.
Values represent mean±SD, n=8 mice/group.
The anti-tumor effects of the MCT4 inhibitors CB-1, CB-2 and/or CB-3 were evaluated in nude mice implanted with human triple negative breast cancer (TNBC) cells (MDA-MB-231). For TNBC xenograft tumor models, MDA-MB-231 (5×10^6) cancer cells were injected subcutaneously into the flanks of female athymic nude mice (nu/nu, 4 weeks old). Two weeks after the injection of cancer cells, xenograft tumors were found in the injection site. Tumor dimensions were measured, and volume was calculated by length (L), width (W), and height (H) using the formula (volume=π/6×L×W×H). After the tumors reached a volume of 50 mm^3, the mice were injected intraperitoneally with 20 mg/kg CB-1, CB-2, CB-3 or with the vehicle solution (DMSO; i.e., Control) for up to 4 weeks. The MCT4 inhibitors were injected daily for 5 days and then mice were rested for 2 days.

[3] = target: T1, MCT4 (Homo sapiens, UniProt O15427); experiment: Lactate secretion assay (LACTATE-GLO Assay); type: cell-based; conditions: MDA-MB-231 cells, compounds 2.5 μM, 48 h
T1 construct: host or cells: MDA-MB-231
T1 sequence (O15427 1-465): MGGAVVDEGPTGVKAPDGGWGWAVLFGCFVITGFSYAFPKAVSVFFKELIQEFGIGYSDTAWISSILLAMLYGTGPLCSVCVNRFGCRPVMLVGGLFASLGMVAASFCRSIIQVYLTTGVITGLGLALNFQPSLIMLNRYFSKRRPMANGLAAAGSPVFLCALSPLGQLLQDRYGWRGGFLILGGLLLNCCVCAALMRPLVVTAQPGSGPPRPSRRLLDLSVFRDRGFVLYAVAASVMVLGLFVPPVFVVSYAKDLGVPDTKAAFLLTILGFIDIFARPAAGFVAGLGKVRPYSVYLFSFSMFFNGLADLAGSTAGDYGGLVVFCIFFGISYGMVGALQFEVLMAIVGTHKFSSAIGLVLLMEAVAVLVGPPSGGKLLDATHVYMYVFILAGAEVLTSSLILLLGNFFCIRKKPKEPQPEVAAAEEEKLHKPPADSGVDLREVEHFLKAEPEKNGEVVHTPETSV
Method: Briefly, MDA-MB-231 cells were incubated with the various compounds (2.5 μM) for 48 h followed by a lactate secretion assay. […] Small compound names are shown on the x-axis. Diclofenac was used as a positive control.
MDA-MB-231 cells were incubated with various candidate compounds (2.5 μM) for 48 hours followed by lactate secretion assay with a LACTATE-GLO™ Assay kit (Promega Corporation, Madison, Wis.) according to the manufacturer's protocol.

SMILES | pIC50 [1] | tumor growth (size and weight) [2] | body weight of the mice [2] | signs of systemic toxicity [2] | lactate secretion inhibition [3]
O=C(Nc1cc(Cl)ccc1Oc1ccc2ccccc2c1Br)c1cc(Cl)cc(I)c1O [CB-1, N-{2-[(1-bromo-2-naphthyl)oxy]-5-chlorophenyl}-5-chloro-2-hydroxy-3-iodobenzamide] | 4.45 | significantly inhibited tumor growth | began to lose weight | – | –
O=C(Nc1ccc(Nc2cc(-n3ccnc3)ncn2)cc1)Nc1cc(F)cc(F)c1 [CB-3, N-(3,5-difluorophenyl)-N′-(4-{[6-(1H-imidazol-1-yl)-4-pyrimidinyl]amino}phenyl)urea] | – | strikingly reduced the size and weight | without affecting body weight | no detectable signs of systemic toxicity | most effective

Source: patent US10919878B2, “MCT4 inhibitors and uses thereof” (CHARLES R. DREW UNIVERSITY OF MEDICINE AND SCIENCE, priority 2018, dated 2021)
